For orientation: IC50 means the concentration at which inhibition is half-maximal.

For test [1], the target named is recombinant human ABHD6 (33-337) (Homo sapiens (Human), UniProt Q9BV23). Kind of test: Evaluation of ABHD6 enzyme inhibitory activity (arachidonic acid production from 1-arachidonoyl glycerol, RapidFire-MS). The class given is biochemical. The settings on record: inhibition of arachidonic acid production, 10 μmol/L 1-arachidonoyl glycerol, 1 hour, room temperature. As to the method:
The recombinant human ABHD6 (33-337) was a GST-tagged ABHD6, and one which was expressed in E. coli, then purified with a Glutathione-Sepharose 4B resin, and then concentrated was used. The enzyme reaction was carried out at room temperature using a 384-well microplate made of polypropylene, and wells to which no enzyme was added were designated as a blank group.
One hour after the start of the enzyme reaction, methanol containing, as an internal standard substance, arachidonic acid-d8 (Cayman Chemical) and 1% formic acid was added to stop enzymatic reaction. The upper part of the enzyme reaction plate was sealed with aluminum, and centrifugation was performed at 560 g for 5 minutes at room temperature. Then, arachidonic acid as an enzyme reaction product and arachidonic acid-ds as the internal standard substance were quantified with RapidFire (registered trademark)-Mass Spectrometry system.

The next test concerns the target human ABHD6 (Homo sapiens (Human), UniProt Q9BV23). Nature of the test: Measurement of binding affinity for human ABHD6 (BRET, HEK293 cells expressing NanoLuc-human ABHD6 fusion protein). The settings on record: BRET competition with fluorescent probe molecule 100 nmol/L in HEK293 cells expressing NanoLuc-human ABHD6. The procedure:
The binding affinity of the test compound for human ABHD6 was measured using bioluminescence resonance energy transfer (hereinafter, abbreviated as BRET) as an index. The bioluminescence resonance energy transfer is induced by the proximity of a probe molecule and a NanoLuc-human ABHD6 fusion protein, which is caused by allowing a fluorescent probe molecule and a test compound to act in a competitive manner using HEK293 cells forcibly expressing the NanoLuc-human ABHD6 fusion protein.
The test compound and the compound described in Example 2 as a control substance were each dissolved in dimethyl sulfoxide (DMSO) to prepare a 10 mmol/L solution. The prepared 10 mmol/L solution was thawed at the time of use, serially diluted with DMSO, and subjected to an experiment.
HEK293 cells expressing a NanoLuc-human ABHD6 fusion protein were statically cultured at 37° C. in the presence of 5% CO2 using inactivated (56° C., 30 min) 9.8 vol % non-dialyzed-FBS (containing 0.5 vol % GENETICIN and 1% penicillin-streptomycin). The subculture was performed by the following method.
The culture medium was removed, and the cells were washed once with phosphate buffered saline without Ca^2+ and Mg^2+. An appropriate amount of trypsin-EDTA was added, and the cells were incubated at room temperature. After the cells were detached, a culture medium in a volume 10-fold the volume of trypsin-EDTA (0.05%) was added to stop an enzyme reaction. The cells were collected in a centrifuge tube, and centrifuged at room temperature for 3 minutes at 120 g, and the supernatant was removed. The cells were suspended in an appropriate amount of culture medium and seeded in a culture flask.
HEK293 cells expressing a NanoLuc-human ABHD6 fusion protein were prepared, and then cryopreserved so as to be 5.0×10^6 cells/mL/vial in CELLBANKER2, and the cells were subjected to an experiment. HBSS (+) containing 20 mmol/L HEPES (pH 7.3) and 0.1% BSA was prepared and used as an assay buffer. The cells were thawed and suspended in the assay buffer to prepare a cell suspension of 2×10^5 cells/mL. […] The plate was allowed to stand at 37° C. for 30 minutes in the presence of 5% CO2. Then, a probe molecule (10 mmol/L in DMSO) having a fluorophore was diluted with the assay buffer so as to have a final concentration of 100 nmol/L, and added to the assay plate in an amount of 15 μL each. Further, this was allowed to stand at 37° C. for 30 minutes in the presence of 5% CO2. Then, a Nano-Glo (registered trademark) Vivazine (trademark) substrate (Promega Corporation) was diluted with the assay buffer according to the method described in the protocol, and added to the assay plate in an amount of 10 μL each, and this was allowed to stand at room temperature for 1 hour. Thereafter, the luminescence and fluorescence intensity were measured using a GloMax (registered trademark) discover system. The ratio between the emission intensity through the 450 nm bandpass filter and the fluorescence intensity through the 600 nm longpass filter was defined as the measured value of each sample. The measured value of the group containing the control substance at a final concentration of 30 μmol/L was defined as 100% inhibition. The measured value of the group not containing the compound was defined as 0% inhibition. The IC50 value of the test compound was determined from the measured value at each test compound concentration.
Background: Bioluminescence resonance energy transfer reports proximity on the nanometre scale.

human ABHD6, sequence (Q9BV23 whole entry, the tested form may be a part): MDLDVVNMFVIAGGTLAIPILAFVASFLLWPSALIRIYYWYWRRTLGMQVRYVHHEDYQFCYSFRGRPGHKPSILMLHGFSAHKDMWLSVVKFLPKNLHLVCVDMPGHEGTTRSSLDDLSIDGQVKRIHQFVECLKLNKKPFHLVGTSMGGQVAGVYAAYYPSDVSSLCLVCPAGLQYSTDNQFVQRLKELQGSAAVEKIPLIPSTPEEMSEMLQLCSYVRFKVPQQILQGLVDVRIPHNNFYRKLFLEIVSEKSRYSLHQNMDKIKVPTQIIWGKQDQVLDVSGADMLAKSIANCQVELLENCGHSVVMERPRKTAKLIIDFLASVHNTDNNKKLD
recombinant human ABHD6 (33-337), sequence (Q9BV23 33-337): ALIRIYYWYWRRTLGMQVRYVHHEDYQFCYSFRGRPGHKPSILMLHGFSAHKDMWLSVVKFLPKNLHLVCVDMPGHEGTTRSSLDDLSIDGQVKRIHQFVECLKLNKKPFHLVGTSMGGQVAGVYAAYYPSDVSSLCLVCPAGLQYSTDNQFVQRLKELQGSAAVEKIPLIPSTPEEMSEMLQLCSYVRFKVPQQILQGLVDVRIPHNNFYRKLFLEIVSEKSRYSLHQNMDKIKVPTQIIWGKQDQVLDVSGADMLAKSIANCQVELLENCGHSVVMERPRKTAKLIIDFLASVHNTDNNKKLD

Regarding `Cn1cc2sc(C(=O)N3C[C@@H]4CC[C@@H](Nc5ccc(Br)nn5)[C@@H]4C3)cc2n1` [Example 3-9, [(3aS,4R,6aR)-4-[(6-Bromo-3-pyridazinyl)amino]hexahydrocyclopenta[c]pyrrol-2(1H)-yl](2-methyl-2H-thieno[3,2-c]pyrazol-5-yl)methanone], the IC50 in test [1] was found to be 1 nM; at human ABHD6, 5 nM.

Source of the values: US20240010658A1, “ABHD6 ANTAGONIST” (ONO PHARMACEUTICAL CO., LTD., priority 2021, published 2024).
